For data set [1] the following is noted: human gut metagenome, 24 h, 2 µM.
Data set [2] can be described thus: The drug is tested on WLS-006 corresponding to human gut metagenome with ENA study accession number: PRJEB37062 and ENA sample accession number: ERS12561741 for biotransformation under anaerobic condition. The drug concentrations were measured over 9 timepoints collected between 0 and 24 hours of incubation by liquid-chromatography-coupled mass spectrometry (LC–MS). The settings on record: 2 µM.

The conditions of data set [3]: human gut metagenome, 24 h, 2 µM. The source holds these as a separate data set.
Data set [4] in a line: The drug is tested on WLS-077 corresponding to human gut metagenome with ENA study accession number: PRJEB37062 and ENA sample accession number: ERS12561750 for biotransformation under anaerobic condition. The drug concentrations were measured over 9 timepoints collected between 0 and 24 hours of incubation by liquid-chromatography-coupled mass spectrometry (LC–MS). To be noted: 2 µM.

Data set [5] is described as follows: The drug is tested on WLS-082 corresponding to human gut metagenome with ENA study accession number: PRJEB37062 and ENA sample accession number: ERS12561751 for biotransformation under anaerobic condition. The drug concentrations were measured over 9 timepoints collected between 0 and 24 hours of incubation by liquid-chromatography-coupled mass spectrometry (LC–MS). To be noted: 2 µM.

The nature of data set [6]: The drug is tested on Z-016 corresponding to mouse gut metagenome with ENA study accession number: PRJEB37062 and ENA sample accession number: ERS12561815 for biotransformation under anaerobic condition. The drug concentrations were measured over 9 timepoints collected between 0 and 24 hours of incubation by liquid-chromatography-coupled mass spectrometry (LC–MS). To be noted: 2 µM.

The nature of data set [7]: The drug is tested on WLS-370 corresponding to human gut metagenome with ENA study accession number: PRJEB37062 and ENA sample accession number: ERS12561793 for biotransformation under anaerobic condition. The drug concentrations were measured over 9 timepoints collected between 0 and 24 hours of incubation by liquid-chromatography-coupled mass spectrometry (LC–MS). The settings on record: 2 µM.

The nature of data set [8]: The drug is tested on Z-021 corresponding to metagenome with ENA study accession number: PRJEB37062 and ENA sample accession number: ERS12561820 for biotransformation under anaerobic condition. The drug concentrations were measured over 9 timepoints collected between 0 and 24 hours of incubation by liquid-chromatography-coupled mass spectrometry (LC–MS). To be noted: 2 µM.

Data set [9] is described as follows: The drug is tested on WLS-086 corresponding to human gut metagenome with ENA study accession number: PRJEB37062 and ENA sample accession number: ERS12561752 for biotransformation under anaerobic condition. The drug concentrations were measured over 9 timepoints collected between 0 and 24 hours of incubation by liquid-chromatography-coupled mass spectrometry (LC–MS). To be noted: 2 µM.

The nature of data set [10]: The drug is tested on WLS-220 corresponding to human gut metagenome with ENA study accession number: PRJEB37062 and ENA sample accession number: ERS12561769 for biotransformation under anaerobic condition. The drug concentrations were measured over 9 timepoints collected between 0 and 24 hours of incubation by liquid-chromatography-coupled mass spectrometry (LC–MS). To be noted: 2 µM.

The conditions of data set [11]: human gut metagenome, 24 h, 2 µM. This is another data set of the same source.
The conditions of data set [12]: human gut metagenome, 24 h, 2 µM. This is another data set of the same source.
Data set [13] is described as follows: The drug is tested on Z-009 corresponding to pig gut metagenome with ENA study accession number: PRJEB37062 and ENA sample accession number: ERS12561809 for biotransformation under anaerobic condition. The drug concentrations were measured over 9 timepoints collected between 0 and 24 hours of incubation by liquid-chromatography-coupled mass spectrometry (LC–MS). The settings on record: 2 µM.

For data set [14] the following is noted: human gut metagenome, 24 h, 2 µM. The source holds these as a separate data set.
For data set [15] the following is noted: human gut metagenome, 24 h, 2 µM. This is another data set of the same source.
The nature of data set [16]: The drug is tested on Z-023 corresponding to metagenome with ENA study accession number: PRJEB37062 and ENA sample accession number: ERS12561822 for biotransformation under anaerobic condition. The drug concentrations were measured over 9 timepoints collected between 0 and 24 hours of incubation by liquid-chromatography-coupled mass spectrometry (LC–MS). To be noted: 2 µM.

A short description of data set [17]: The drug is tested on Z-008 corresponding to metagenome with ENA study accession number: PRJEB37062 and ENA sample accession number: ERS12561808 for biotransformation under anaerobic condition. The drug concentrations were measured over 9 timepoints collected between 0 and 24 hours of incubation by liquid-chromatography-coupled mass spectrometry (LC–MS). The settings on record: 2 µM.

The conditions of data set [18]: human gut metagenome, 24 h, 2 µM. The source holds these as a separate data set.
A short description of data set [19]: The drug is tested on WLS-170 corresponding to human gut metagenome with ENA study accession number: PRJEB37062 and ENA sample accession number: ERS12561762 for biotransformation under anaerobic condition. The drug concentrations were measured over 9 timepoints collected between 0 and 24 hours of incubation by liquid-chromatography-coupled mass spectrometry (LC–MS). The settings on record: 2 µM.

For data set [20] the following is noted: human gut metagenome, 24 h, 2 µM. This is another data set of the same source.

The structures appear in SMILES notation.
Further: call rule not given here.

On to `CC(C)NCC(O)COc1ccc(CCOCC2CC2)cc1` (stereo not given) [BETAXOLOL], for which the “Bacterial Biotransformation” value in data set [1] is “Compound NOT metabolized”; in data set [2], “Compound NOT metabolized”; in data set [3], “Compound metabolized”; in [4] it was “Compound NOT metabolized”; in [5] it was “Compound NOT metabolized”; in data set [6] it was “Compound NOT metabolized”. The “Bacterial Biotransformation” value in data set [7] was “Compound NOT metabolized”; in data set [8], “Compound NOT metabolized”; in [9], “Compound metabolized”; in data set [10], “Compound NOT metabolized”; in [11], “Compound NOT metabolized”; in [12], “Compound NOT metabolized”. Moreover, the “Bacterial Biotransformation” value in [13] is reported as “Compound NOT metabolized”; in [14], “Compound metabolized”; in data set [15], “Compound NOT metabolized”; in [16], “Compound metabolized”; in data set [17], “Compound NOT metabolized”; in data set [18], “Compound metabolized”. The “Bacterial Biotransformation” value in [19] was “Compound metabolized”; in data set [20] it was “Compound NOT metabolized”.
With `CC(C)(Oc1ccc(CCNC(=O)c2ccc(Cl)cc2)cc1)C(=O)O` [BEZAFIBRATE], the “Bacterial Biotransformation” value in data set [1], in data set [2], in data set [3], in [4], in data set [5] and in data set [6] was “Compound metabolized” in each case. The “Bacterial Biotransformation” value in [7], in data set [8], in [9], in data set [10], in data set [11] and in [12] was “Compound metabolized” each time. In addition, the “Bacterial Biotransformation” value is “Compound metabolized” in data set [13]; “Compound metabolized” in data set [14]; “Compound metabolized” in data set [15]; “Compound metabolized” in data set [16]; “Compound NOT metabolized” in data set [17]; “Compound metabolized” in [18]. Also, the “Bacterial Biotransformation” value was “Compound metabolized” in data set [19] and “Compound NOT metabolized” in [20].
In the case of `O=C(NCc1ccccc1)OCCO` [BURAMATE], the “Bacterial Biotransformation” value in data set [1], in data set [2], in data set [3], in data set [4], in data set [5] and in [6] was “Compound NOT metabolized” in each case. Also, the “Bacterial Biotransformation” value in [7], in [8], in data set [9], in data set [10], in [11] and in data set [12] was “Compound NOT metabolized” each time. In addition, the “Bacterial Biotransformation” value in data set [13], in data set [14], in data set [15], in data set [16], in data set [17] and in data set [18] was “Compound NOT metabolized” in each case. The “Bacterial Biotransformation” value in [19] and in [20] was “Compound NOT metabolized” in each case.
For the compound `CCN(CC)CCOCCOC(=O)C1(c2ccccc2)CCCC1.O=C(O)CC(O)(CC(=O)O)C(=O)O` [CARBETAPENTANE CITRATE], the “Bacterial Biotransformation” value in data set [1], in data set [2], in data set [3], in [4], in data set [5] and in data set [6] was “Compound metabolized” in each case. In addition, the “Bacterial Biotransformation” value in data set [7] is reported as “Compound metabolized”; in data set [8] it was “Compound metabolized”; in [9], “Compound NOT metabolized”; in [10], “Compound metabolized”; in data set [11] it was “Compound metabolized”; in data set [12] it was “Compound metabolized”. Further, the “Bacterial Biotransformation” value in [13] is recorded as “Compound metabolized”; in data set [14], “Compound metabolized”; in [15], “Compound metabolized”; in data set [16] it was “Compound NOT metabolized”; in [17] it was “Compound NOT metabolized”; in data set [18], “Compound metabolized”. For the same compound, the “Bacterial Biotransformation” value was “Compound metabolized” in data set [19] and “Compound NOT metabolized” in data set [20].
As for `O=C(O)COCCN1CCN(C(c2ccccc2)c2ccc(Cl)cc2)CC1` (stereo not given) [CETIRIZINE], the “Bacterial Biotransformation” value in data set [1], in data set [2], in [3], in [4], in data set [5] and in data set [6] was “Compound metabolized” each time. Moreover, the “Bacterial Biotransformation” value in data set [7], in data set [8], in data set [9], in [10], in data set [11] and in data set [12] was “Compound metabolized” each time. The “Bacterial Biotransformation” value in data set [13] is reported as “Compound metabolized”; in data set [14], “Compound metabolized”; in data set [15], “Compound metabolized”; in data set [16] it was “Compound metabolized”; in data set [17], “Compound NOT metabolized”; in data set [18] it was “Compound metabolized”. The “Bacterial Biotransformation” value in data set [19] and in data set [20] was “Compound metabolized” throughout.
Consider `CN/C(=N/CCSCc1nc[nH]c1C)NC#N` [CIMETIDINE], for which the “Bacterial Biotransformation” value is “Compound metabolized” in [1]; “Compound metabolized” in data set [2]; “Compound metabolized” in data set [3]; “Compound metabolized” in data set [4]; “Compound metabolized” in data set [5]; “Compound NOT metabolized” in data set [6]. Also, the “Bacterial Biotransformation” value in [7] is reported as “Compound NOT metabolized”; in data set [8], “Compound NOT metabolized”; in [9] it was “Compound metabolized”; in [10], “Compound metabolized”; in data set [11], “Compound metabolized”; in data set [12], “Compound NOT metabolized”. The “Bacterial Biotransformation” value in data set [13] is listed as “Compound NOT metabolized”; in data set [14], “Compound metabolized”; in data set [15] it was “Compound NOT metabolized”; in [16] it was “Compound NOT metabolized”; in data set [17], “Compound NOT metabolized”; in data set [18], “Compound metabolized”. The “Bacterial Biotransformation” value is given as “Compound metabolized” in [19] and “Compound NOT metabolized” in data set [20].

For the origin of these results see ChEMBL document CHEMBL5724914, “Linking interpersonal differences in gut microbiota composition and drug biotransformation activity” (2024).
